This note sets out measurements from ChEMBL document CHEMBL1201862, “PubChem BioAssay data set” (2004).

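Step 1: Grow cells in 96-well plates. Step 2: Expose to compound for 48 hours at 5 concentrations. Step 3: Interpolate endpoints linearly; if unreached, use highest concentration. GI50 = concentration required for 50% inhibition of growth.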 Calls of active or inactive are those of the source. Cut-off read from the data, not from the text of the source: active = GI50 up to about 1.1 µM and inactive = higher. A value given as a limit tells only on which side of the number the result lay.

Assay in all cases: NCI-60 cell line screen, 48 h
Assay [1] relates to DMS-114.
Assay [2] concerns DMS-273.
For assay [3], the system named is HOP-18.
Assay [4] relates to KM-20L2.
The test system of assay [5] is LXFL 529.
The test system of assay [6] is M19-MEL.
In assay [7] the test system is SNB-78.
Assay [8] deals with XF498.
Assay [9] relates to RXF 631.

Turning to `OCC(O)C(O)C(O)c1nn(-c2ccc(F)cc2)c2nc3cc(Cl)c(Cl)cc3nc12` (centres undefined), the GI50 is 21.3 µM (inactive) in [1]; 15.9 µM (inactive) in assay [2]; 16.9 µM (inactive) in [3]; 49.7 µM (inactive) in assay [4]; 28.1 µM (inactive) in assay [5]; 22 µM (inactive) in assay [6]. The GI50 in [7] is 13.8 µM (inactive); in assay [8], 11.4 µM (inactive).

With `O=C1C=CC2(CCCCCCC2=O)CC1` (centres undefined), the GI50 in [2], in assay [3], in assay [4], in [5], in assay [6] and in assay [7] was > 100 µM (inactive) throughout.

Consider `O=C(/C=C/c1c(O)ccc2ccccc12)c1ccccc1Cl`, for which the GI50 in [1] was 19.9 µM (inactive); in [2], 34.3 µM (inactive); in [4], > 100 µM (inactive); in [5] it was 31 µM (inactive); in [6], 14 µM (inactive); in [7], 44.4 µM (inactive). Also, the GI50 in [8] was 23.3 µM (inactive).

In the case of `CCCCCCCCC(=O)NCCCNCCCNC(=O)CCCCCCCC`, the GI50 in assay [1] was 3.78 µM (inactive); in assay [2], 2.56 µM (inactive); in assay [3], 11.9 µM (inactive); in assay [4], 2.53 µM (inactive); in assay [5], 3.35 µM (inactive); in [6], 3.93 µM (inactive). In addition, the figures for the GI50 in assay [7] and in assay [8] were 10.9 µM (inactive) and 3.18 µM (inactive), respectively.

`CN(C)c1ccc(/C=C(/C(=O)O)c2csc(-c3nc(/C(=C\c4ccc(N(C)C)cc4)C(=O)O)cs3)n2)cc1`: the GI50 in assay [1] is 29.9 µM (inactive); in assay [4] it was > 100 µM (inactive); in assay [5], 96.4 µM (inactive); in assay [6], > 100 µM (inactive); in [7], > 100 µM (inactive).

Take `N#C/C(=C\c1cc(OCc2ccccc2)c(OCc2ccccc2)cn1)C(N)=O`: the GI50 in assay [1] was 81.3 µM (inactive); in [4] it was > 100 µM (inactive); in assay [5] it was > 100 µM (inactive); in assay [6], > 100 µM (inactive); in assay [9], > 100 µM (inactive); in [7], > 100 µM (inactive). Moreover, the GI50 in assay [8] is > 100 µM (inactive).

As for `O=C1C2CC=CCC2C(=O)C12CCc1ccccc12` (centres undefined), the GI50 is > 100 µM (inactive) in assay [2]; 8.15 µM (inactive) in [3]; > 100 µM (inactive) in assay [4]; > 100 µM (inactive) in assay [5]; > 100 µM (inactive) in assay [6]; > 100 µM (inactive) in [7]. Further, the GI50 in [8] is > 100 µM (inactive).

In the case of `OCC1OC2c3ccccc3COC2C1OCc1ccccc1` (centres undefined), the GI50 in assay [1] is 59.4 µM (inactive); in assay [3], > 100 µM (inactive); in assay [4], > 100 µM (inactive); in [5] it was 87.7 µM (inactive); in assay [6] it was > 100 µM (inactive); in [9] it was > 100 µM (inactive). Also, the GI50 in assay [7] is > 100 µM (inactive); in assay [8], 49.2 µM (inactive).

For the molecule `CCOC(=O)C(CCC(N)=O)(CCC(=O)OC)C(=O)OCC`, the GI50 in [1], in assay [2], in assay [3], in [4], in assay [5] and in assay [6] was > 100 µM (inactive) in each case. For the same molecule, the GI50 in assay [7] and in assay [8] was > 100 µM (inactive) throughout.

In the case of `COc1ccc(C(Cl)=C(c2ccc(OCCN(C)C)cc2)c2ccc(OCCN(C)C)cc2)cc1`, the GI50 in assay [1] was 1.6 µM (inactive); in [2] it was 1.86 µM (inactive); in [4] it was 1.36 µM (inactive); in assay [9], 0.322 µM (active); in [7], 1.71 µM (inactive); in assay [8] it was 1.46 µM (inactive).

On to `COc1cc(CNc2cnc3ccc(N)cc3n2)cc(OC)c1OC`, for which the GI50 is > 100 µM (inactive) in assay [1]; 99.8 µM (inactive) in [2]; > 100 µM (inactive) in assay [3]; > 100 µM (inactive) in assay [4]; > 100 µM (inactive) in assay [5]; 66.8 µM (inactive) in assay [6]. The GI50 in assay [7] is > 100 µM (inactive).

On to `Cc1nc2nnnn2c2c1C(=O)Nc1ccccc1N2`, for which the GI50 in [1], in [2], in assay [3], in [4], in assay [5] and in assay [6] was > 100 µM (inactive) each time. Besides, the GI50 in [7] and in assay [8] was > 100 µM (inactive) throughout.

Consider `COc1cccc(C(=O)N2CCc3ccccc32)c1OC`, for which the GI50 in assay [1] is 43.8 µM (inactive); in [2] it was 41 µM (inactive); in [3] it was 34.1 µM (inactive); in [4] it was 80.2 µM (inactive); in [5], 74 µM (inactive); in assay [6], > 100 µM (inactive). For the same molecule, the GI50 in assay [9] is 58.5 µM (inactive); in [7] it was > 100 µM (inactive); in [8] it was 40.3 µM (inactive).

`O=C(O)CCNS(=O)(=O)c1ccc(NC(=O)c2ccccc2)cc1`: the GI50 in assay [2], in [3], in assay [4], in assay [5], in assay [6] and in [8] was > 100 µM (inactive) in each case.

As to `NC1(CCCCCCCCCCC(=O)O)CNCCNCCNCCNC1`, the GI50 in assay [1] was 28.8 µM (inactive); in assay [4], 24.9 µM (inactive); in [6], 39.6 µM (inactive).

On to `O=C(Cc1nc2ccccc2s1)NC12CC3CC(CC(C3)C1)C2`, for which the GI50 in assay [2], in assay [4], in assay [5], in [6], in [9] and in [7] was > 100 µM (inactive) throughout.

Take `Cc1ccc(/N=C2\N=C(N3CC(C)OC(C)C3)c3ccccc32)cc1` (centres undefined): the GI50 was 28.1 µM (inactive) in assay [2]; 27.5 µM (inactive) in [4]; 18.9 µM (inactive) in [5]; 36.1 µM (inactive) in assay [6]; 34.9 µM (inactive) in assay [9]; 31.1 µM (inactive) in assay [7]. The GI50 in assay [8] is 24.3 µM (inactive).

`Cc1ccc(C)c(NC(=O)CC/C(=N\NC(=O)c2c(O)ccc3ccccc23)C(C)C(=O)c2ccc(O)cc2)c1` (centres undefined): the GI50 in assay [2] is 26.9 µM (inactive); in assay [3] it was 14.3 µM (inactive); in assay [4], 15.1 µM (inactive); in assay [5] it was 30.5 µM (inactive); in assay [7] it was 36.2 µM (inactive); in [8], 44.3 µM (inactive).

Turning to `COc1cc(C[P+](c2ccccc2)(c2ccccc2)c2ccccc2)cc(OC)c1OC`, the GI50 in assay [1], in assay [2], in [4], in [5], in assay [6] and in assay [7] was > 100 µM (inactive) each time. Further, the GI50 in [8] is > 100 µM (inactive).

Consider `CCOC(=O)NC(=O)c1cn(CCN2CCN(C(=O)CNC(=O)CNC(=O)Cn3cc(C(=O)NC(=O)OCC)c(=O)[nH]c3=O)CC2)c(=O)[nH]c1=O`, for which the GI50 in assay [1], in assay [2], in [3], in [4], in assay [5] and in assay [6] was > 100 µM (inactive) in each case. In addition, the GI50 in [7] and in assay [8] was > 100 µM (inactive) throughout.

Consider `O=C(O)/C=C/C(=O)N1C/C(=C\c2ccccc2)C(=O)/C(=C/c2ccccc2)C1`, for which the GI50 in assay [1] was 2.99 µM (inactive); in [2], 8.53 µM (inactive); in [3], 11.9 µM (inactive); in [4] it was 5.9 µM (inactive); in [5] it was 1.8 µM (inactive); in [6], 3.21 µM (inactive). Besides, the GI50 was 5.9 µM (inactive) in assay [7] and 7.18 µM (inactive) in [8].

Turning to `COC(=O)/C(=N\NC(N)=S)C(C#N)c1ccccc1` (centres undefined), the GI50 in assay [1], in assay [4], in [5], in assay [6], in assay [7] and in assay [8] was > 100 µM (inactive) each time.

With `Cn1c(=O)c2c(nc3n2CCC(=O)N3)n(C)c1=O`, the GI50 in assay [1], in assay [2], in assay [4], in assay [5], in [6] and in [9] was > 100 µM (inactive) in each case. Further, in [7], the GI50 was > 100 µM (inactive).

For `CCCCCCCCCCCCSC(=S)c1c(C)[nH]n(-c2ccccc2)c1=O`, the GI50 in assay [1] is 6.84 µM (inactive); in assay [3] it was > 50 µM (inactive); in assay [4], 10.2 µM (inactive); in [5], 9.12 µM (inactive); in assay [9], 13.2 µM (inactive); in assay [7], 29.8 µM (inactive).

In the case of `CC(N)Cc1ccc(Cl)cc1` (centres undefined), the GI50 was > 100 µM (inactive) in [2]; > 100 µM (inactive) in [3]; 47.2 µM (inactive) in assay [4]; > 100 µM (inactive) in [5]; > 100 µM (inactive) in [8].
